Experimental data from patent US20090111733A1, “PAR-4 RELATED METHODS AND COMPOSITIONS” (President and Fellows of Harvard College, priority 2006, published 2009).
Each block holds one molecule with its values, some of them ahead of it.

Key:
[1] = tested on: Par-4/D2DR association; assay: Co-immunoprecipitation of Par-4 with D2DR-EGFP in the stable D2DR-EGFP cell line; assay type: cell-based, human
[2] = target: T1, D2i3 (third intracellular loop of the long isoform of human D2DR) (Homo sapiens, UniProt P14416); assay: In vitro binding assay with purified GST-D2i3 and Par-4LZ proteins; details: in the presence of Ca2+
T1 construct: A long isoform of D2i3 (amino acid 212-373) was amplified from a human D2DR cDNA clone; made in house; host or cells: E. coli BL21
T1 sequence (P14416 212-241): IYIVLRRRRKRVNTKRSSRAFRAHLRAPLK
Protocol: (§1) pPC97-D2i3 and pPC86-Par-4LZ plasmids were digested with SalI and NotI and cloned into pGEX4T-2 (Amersham-Pharmacia) using the same restriction sites to make GST-D2i3 and GST-Par-4LZ fusion proteins, respectively. GST-fusion proteins were expressed in BL21 bacteria and purified following manufacturer's instruction. For the in vitro binding assay, 500 nmoles of GST-Par-4LZ fusion protein in PBS was digested with 0.2 NIH units of thrombin (Sigma) for 2 hours at room temperature and the reaction was stopped by adding PMSF (10 μM, Sigma) and incubated for an additional 1 hour at 4° C. The GST portion of the digested protein was removed by glutathione sepharose (Amersham-Pharmacia). The supernatant was equilibrated to final 1× binding buffer (200 mM NaCl, 0.2% Triton X-100, 0.2mg/ml BSA and 50 mM Tris, pH 7.5). Binding reaction was initiated by adding 500 nmoles of GST-D2i3 (50 nM of GST-D2i3^221-241 in the competition assay) to Par-4LZ protein in the 1× binding buffer and incubated for 2-3 hours at 4° C. GST-D2i3 was precipitated using 100 μl of 10% glutathione sepharose in 1× binding buffer. The precipitate was washed 3 times with 1× binding buffer and resuspended in 2× SDS sample loading buffer.

[3] = tested on: dopamine-mediated cAMP signaling; assay: cAMP accumulation in cultured primary striatal neurons from wild type and Par-4ΔLZ embryos (cAMP EIA); assay type: cell-based, mouse; details: for upregulation of cAMP signaling comparable to that with dopamine: Par-4ΔLZ striatal neurons
Protocol: DIV 11-14 neurons cultured in 24 well-plates were replaced with neurobasal media supplemented with 10 mM HEPES (pH7.4) containing drugs indicated for 50 min at room temperature, cells were lysed in 200 μl of 0.1M HCl solution for 15 min with gentle shaking and spun in the microcentrifuge tubes. cAMP concentration of the supernatant was measured using the cAMP-Enzyme Immunoassay Kit (Assay Designs) following manufacture's instructions. Concentrations of cAMP were normalized using protein concentrations measured by Biorad Protein Assay System (Bio-rad).

[4] = target: GST-D2i3 (GST fusion of the third intracellular loop of the long isoform of human D2DR, amino acid residues 212-373) (human); assay: in vitro GST pull-down with purified proteins
[5] = tested on: Par-4 nuclear translocation; assay: Par-4 nuclear translocation in cultured striatal neurons; assay type: cell-based; details: activation of glutamate receptors
[6] = tested on: CREB S133 phosphorylation
Protocol: The cells were mechanically dissociated by triturating with a fine polished glass pipette, diluted in Neurobasal media (Invitrogen) supplemented with 10% horse serum and 10 mM HEPES (pH7.2), and plated in a dish coated with poly-D-lysine (Sigma) and laminin (Sigma). Cultured DIV12-13 mouse neurons were lysed for 30 min at 4° C. with gentle shaking in the extraction buffer (50 mM Tris pH8.0, 50 mM NaCl, 1.0% NP-40, 0.5% sodium deoxycholate, 0.1% SDS, 1 mM EDTA, 1 mM EGTA, 1 mM NaF, 20 mM Na4P2O7, 2 mM Na3VO4, 10% glycerol) supplemented with protease inhibitor cocktail (Sigma). Cell lysates were centrifuged for 15 min at 12,000 g at 4° C. and the supernatants were applied to ELISA using the Immunoassay kits for total CREB and […] phospho-CREB (Biosource) following the manufacturer's instruction.

[7] = target: T2, D2i3 (third intracellular loop of the long isoform of human D2DR) (Homo sapiens, UniProt P14416); assay: In vitro binding assay with purified GST-D2i3 and Par-4LZ proteins; details: equimolar amount of GST-D2i3 protein
T2 construct: A long isoform of D2i3 (amino acid 212-373) was amplified from a human D2DR cDNA clone; made in house; host or cells: E. coli BL21
T2 sequence (P14416 212-373): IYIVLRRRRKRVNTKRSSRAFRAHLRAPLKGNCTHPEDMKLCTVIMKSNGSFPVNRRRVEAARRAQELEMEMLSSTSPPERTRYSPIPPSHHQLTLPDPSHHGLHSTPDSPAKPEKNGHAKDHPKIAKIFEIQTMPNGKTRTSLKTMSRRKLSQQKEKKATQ
Protocol: as §1

Molecule: C[C@H](CCC(=O)O)C[C@H](C)C[C@H](C)C(=O)/C=C(\O)[C@H](C)C[C@H](C)C/C=C/[C@@H](C)[C@@H](O)[C@@H](C)[C@@H](O)C[C@@H]1CC[C@@](C)([C@H]2CC[C@@](C)([C@@H](C)O)O2)O1 [ionomycin]
- co-immunoprecipitation of Par-4 with D2DR-EGFP [1]: significantly reduced

- interaction of Par-4LZ with D2i3 in the presence of increasing calmodulin levels [2]: effectively interfered
Molecule: calmodulin

Molecule: NCCc1c[nH]c2ccc(O)cc12 [serotonin]
- upregulation of cAMP signaling comparable to that with dopamine [3]: not detected

Molecule: CCN1CCCC1CNC(=O)c1cc(S(N)(=O)=O)ccc1OC (stereo not shown) [sulpiride]
- cAMP response to dopamine ([3]; Par-4ΔLZ neurons, co-treated with dopamine): no such effect
- cAMP response to dopamine ([3]; wild type neurons, co-treated with 1-10 μM dopamine): enhanced

- percent of total protein pulled down [4]: 50%
Molecule: Par-4LZ protein (purified; human Par-4 amino acid residues 245-342, leucine zipper domain)

Molecule: N[C@@H](CCC(=O)O)C(=O)O [glutamate]
- nuclear translocation of Par-4 [5]: induce nuclear translocation

Molecule: NC[C@H](O)c1ccc(O)c(O)c1 [norepinephrine]
- upregulation of cAMP signaling comparable to that with dopamine [3]: not detected

Molecule: C/C=C(/C)C(=O)O[C@H]1C(C)=C2[C@H]([C@@H]1OC(=O)CCCCCCC)[C@@](C)(OC(C)=O)C[C@H](OC(=O)CCC)[C@@]1(O)[C@H]2OC(=O)[C@@]1(C)O [thapsigargin]
- co-immunoprecipitation of Par-4 with D2DR-EGFP [1]: significantly reduced

Molecule: NCCc1ccc(O)c(O)c1 [dopamine]
- cAMP levels ([3]; Par-4ΔLZ mutant neurons, 1-10 μM of dopamine): markedly elevated
- dopamine-induced downregulation of CREB S133 phosphorylation ([6]; Par-4ΔLZ neurons): not observed
- CREB S133 phosphorylation ([6]; wild type neurons, dose-dependent): significantly decreased

- fraction of total Par-4LZ protein pulled down by GST-D2i3 [7]: Approximately 50%
B1: Par-4LZ: human Par-4 amino acid residues 245-342 that harbor the leucine zipper domain (protein)
chain: DRSGFPRYNRDANVSGTLVSSSTLEKKIEDLEKEVVRERQENLRLVRLMQDKEEMIGKLKEEIDLLNRDLDDIEDENEQLKQENKTLLKVVGQLTR
